Measured values published in patent publication US6984649B1, “Pyridine derivatives” (Bayer Aktiengesellschaft, priority 2000, dated 2006).
Counter-ions that a name gives are not always drawn.

The molecules below were run on A549 human lung epithelium cell line (assay: RANTES production in response to TNF-α from A549 cells). Settings: Homo sapiens, A549, A549 cells, 100 ng/ml TNF-α, read-out: Cellular activity grade (A549) (Cellular IC50).
Type: cell-based
In short: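 RANTES released into supernatant was measured by DELFIA-type sandwich immunoassay, Eu-labelled detection antibody, 340 nm excitation/615 nm emission, recombinant RANTES standard. Beforehand, cells seeded at 4×10^4/well received test compound (1% DMSO) for 1 h at 37 °C, followed by 24 h TNF-α (100 ng/ml) stimulation.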

IC50 | Structure (SMILES)
< 1000 nM | N#Cc1c(C2CCCNC2)cc(-c2c(O)cccc2OCc2ccc3ccccc3c2)nc1N (stereo not drawn) [Example 2-21]
1000 to 10000 nM | N#Cc1c([C@@H]2CCCN2)cc(-c2ccccc2O)nc1N [Example 1-31]
< 1000 nM | O=C1Nc2nc(-c3c(O)cccc3OCC3CC3)cc(C3CCCNC3)c2CN1C(=O)NC1CCCCC1 (stereo not drawn) [Example 24-3, N-cyclohexyl-7-[2-(cyclopropylmethoxy)-6-hydroxyphenyl]-2-oxo-5-(3-piperidinyl)-1,4-dihydropyrido[2,3-d]pyrimidine-3(2H)-carboxamide hydrochloride]
< 1000 nM | N#Cc1c(C2CCCNC2)cc(-c2cccc(Cl)c2O)nc1N (stereo not drawn) [Example 1-20]
< 1000 nM | CCCCCCCOc1cccc(O)c1-c1cc(C2CCNCC2)c(C#N)c(N)n1 [Example 2-73]
< 1000 nM | N#Cc1cccc(COc2cccc(O)c2-c2cc(C3CCCNC3)c(C#N)c(N)n2)c1 (stereo not drawn) [Example 2-15]
< 1000 nM | N#Cc1c(C2CCNCC2)cc(-c2c(O)cccc2OCC2CCCO2)nc1N (stereo not drawn) [Example 2-82]
< 1000 nM | CC(C)CCCOc1cccc(O)c1-c1cc(C2CCCNC2)c(C#N)c(N)n1 (stereo not drawn) [Example 2-63]

Same assay, conditions: Homo sapiens, A549 cells, 100 ng/ml TNF-α, read-out: Cellular activity grade (A549) (Cellular IC50)

Structure (SMILES) | IC50
CC(N)Cc1cc(-c2ccccc2O)nc(N)c1C#N (stereo not drawn) [Example 1-36] | 1000 to 10000 nM
